Data taken from patent US9982005B2, “Macrolides and methods of their preparation and use” (President and Fellows of Harvard College, priority 2013, dated 2018).
Values after ≈ are worked out from the molar mass of the structure shown. Read-outs that look alike come from different tables or passages of the source.

Assays:
Format in all cases: cell-based
[1] = tested on: BS1723 B. subtilis BS168 WT wild type; experiment: broth dilution MIC, B. subtilis BS1723; details: Bacillus subtilis, BS1723 B. subtilis BS168 WT wild type; read-out: MIC
How it was run: (§1)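 Values are broth dilution MICs measured according to CLSI standard procedure; the macrolide azithromycin was tested as control.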

[2] = tested on: SA418 S. aureus ermA negative msrA positive; experiment: broth dilution MIC, S. aureus SA418; details: Staphylococcus aureus
From the text: (§2) We have collected MIC data for a total of 50 novel macrolides that this platform has produced against over 21 unique strains of B. subtilis, E. coli, S. aureus, S. pneumoniae, and H. influenzae, including several multidrug-resistant strains, with a special focus on macrolide resistant mechanisms (vide supra). Azithromycin was included as a control macrolide. CLSI standard procedures for broth dilution MIC determination were used. […] These genotypes can be constitutive or inducible. The finding that C4-epi (unnatural) isomers of the “azaketolide” macrolide class have enhanced activities relative to C4 natural isomers is very exciting.

[3] = tested on: HI175 H. influenzae ATCC49247; experiment: broth dilution MIC, H. influenzae HI175; details: Haemophilus influenzae
From the text: as §2

[4] = tested on: Spn1537 S. pneumoniae ermB positive mefA positive; experiment: broth dilution MIC, S. pneumoniae Spn1537; details: Streptococcus pneumoniae
From the text: as §2

[5] = tested on: K. pneumoniae strains; experiment: MIC against K. pneumoniae strains (Table M8); details: Klebsiella pneumoniae, K. pneumoniae 10031
[6] = tested on: EC882 E. coli imp; experiment: broth dilution MIC, E. coli EC882; details: Escherichia coli
How it was run: as §1

[7] = tested on: SA557 S. aureus ermA unknown msrA positive; experiment: broth dilution MIC, S. aureus SA557; details: Staphylococcus aureus; SA557 S. aureus ermA unknown msrA positive; read-out: MIC
From the text: as §2

[8] = tested on: EC107 E. coli ATCC25922; experiment: broth dilution MIC, E. coli EC107; details: Escherichia coli, read-out: MIC
How it was run: as §1

[9] = tested on: SA1707 S. aureus ermA negative msrA positive; experiment: broth dilution MIC, S. aureus SA1707; details: Staphylococcus aureus
From the text: as §2

[10] = tested on: S. aureus strains; experiment: MIC against S. aureus strains (Table M7); details: Staphylococcus aureus
How it was run: as §1

[11] = tested on: HI281 H. influenzae; experiment: broth dilution MIC, H. influenzae HI281; details: Haemophilus influenzae
From the text: as §2

[12] = tested on: Spn1509 S. pneumoniae ermB positive mefA negative; experiment: broth dilution MIC, S. pneumoniae Spn1509; details: Streptococcus pneumoniae; Spn1509 S. pneumoniae ermB positive mefA negative; read-out: MIC
From the text: as §2

[13] = tested on: Spn160 S. pneumoniae ermB unknown mefA positive; experiment: broth dilution MIC, S. pneumoniae Spn160; details: Streptococcus pneumoniae
From the text: as §2

[14] = tested on: E. faecalis strains; experiment: MIC against E. faecalis strains (Table M8); details: Enterococcus faecalis, E. faecalis 29212
[15] = tested on: SA183 S. aureus ermA positive msrA unknown; experiment: broth dilution MIC, S. aureus SA183; details: Staphylococcus aureus
From the text: as §2

[16] = tested on: H. influenzae strains; experiment: MIC against H. influenzae strains (Table M8); details: Haemophilus influenzae
How it was run: as §1

[17] = tested on: E. coli strains; experiment: MIC against E. coli strains (Table M7); details: Escherichia coli, ATCC25922, E. coli ATCC 25922
How it was run: as §1

[18] = tested on: Spn1533 S. pneumoniae ermB positive mefA positive; experiment: broth dilution MIC, S. pneumoniae Spn1533; details: Streptococcus pneumoniae
From the text: as §2

[19] = tested on: A. baumannii strains; experiment: MIC against A. baumannii strains (Table M8); details: Acinetobacter baumannii, BAA747, A. baumannii BAA747-1
[20] = tested on: BS1725 B. subtilis ermC; experiment: broth dilution MIC, B. subtilis BS1725; details: Bacillus subtilis, BS1725 B. subtilis ermC (+ery)
How it was run: as §1

[21] = tested on: SA101 S. aureus ATCC29213; experiment: broth dilution MIC, S. aureus SA101; details: Staphylococcus aureus, ATCC29213, SA101 S. aureus ATCC29213; read-out: MIC
How it was run: as §1

[22] = tested on: S. pneumoniae strains; experiment: MIC against S. pneumoniae strains (Tables M7, M8); details: Streptococcus pneumoniae
From the text: CLSI standard procedures for broth dilution MIC determination were used. […] These genotypes can be constitutive or inducible.

[23] = tested on: Spn 106 S. pneumonia ATCC49619; experiment: broth dilution MIC, S. pneumoniae Spn 106; details: Streptococcus pneumoniae
From the text: as §2

[24] = tested on: SA1708 S. aureus ermA positive msrA negative; experiment: broth dilution MIC, S. aureus SA1708; details: Staphylococcus aureus
From the text: as §2

[25] = tested on: EC878 E. coli tolC; experiment: broth dilution MIC, E. coli EC878; details: Escherichia coli
How it was run: as §1

[26] = tested on: SA506 S. aureus ermA positive msrA unknown; experiment: broth dilution MIC, S. aureus SA506; details: Staphylococcus aureus
From the text: as §2

[27] = tested on: S. aureus (Newman, clinical isolate); experiment: MIC, S. aureus Newman; details: Staphylococcus aureus, S. aureus (Neuman, clinical isolate), round 2
From the text: as §2

[28] = tested on: E. coli (MC4100); experiment: MIC, E. coli MC4100; details: Escherichia coli, round 2, read-out: MIC
From the text: as §2

[29] = ATCC29213, S. aureus ATCC 29213, read-out: MIC S. aureus (ATCC 29213)
[30] = S. aureus 506, read-out: MIC S. aureus (506)
[31] = S. aureus 1708, read-out: MIC S. aureus (1708)
[32] = USA300, S. aureus USA300, read-out: MIC S. aureus (USA300)
[33] = H. influenzae 49247, read-out: MIC H. influenzae (49247)
[34] = H. influenzae 49766, read-out: MIC H. influenzae (49766)
[35] = S. pneumoniae 160, read-out: MIC S. pneumonae (160)
[36] = S. pneumoniae 1509, read-out: MIC S. pneumoniae (1509)
[37] = S. pneumoniae 1533, read-out: MIC S. pneumoniae (1533)
[38] = S. pneumoniae 1537, read-out: MIC S. pneumoniae (1537)

| Structure (SMILES) | MIC [1] [µg/mL] | MIC [2] [µg/mL] | MIC [3] [µg/mL] | MIC [4] [µg/mL] | MIC [5] [µg/mL] | MIC [6] [µg/mL] | MIC [7] [µg/mL] | MIC [8] [µg/mL] | MIC [9] [µg/mL] | MIC [10, 29] [µg/mL] | MIC [10, 30] [µg/mL] | MIC [10, 31] [µg/mL] | MIC [10, 32] [µg/mL] | MIC [11] [µg/mL] | MIC [12] [µg/mL] | MIC [14] [µg/mL] | MIC [15] [µg/mL] | MIC [16, 33] [µg/mL] | MIC [16, 34] [µg/mL] | MIC [17] [µg/mL] | also measured |
| --- | --- | --- | --- | --- | --- | --- | --- | --- | --- | --- | --- | --- | --- | --- | --- | --- | --- | --- | --- | --- | --- |
| CC[C@H]1OC(=O)[C@H](C)C(=O)[C@H](C)[C@@H](O[C@@H]2OC(C)CC(N(C)C)C2O)[C@](C)(OC)C[C@@H](C)CN[C@H](C)[C@H]2N(CCCCn3cc(-c4cccc(N)n4)nn3)C(=O)O[C@]12C (stereo partly drawn) [FSM-20715] | 1 (≈ 1.21 µM) | 2 (≈ 2.41 µM) | 2 (≈ 2.41 µM) | > 32 | 2 (≈ 2.41 µM) | 0.0312 (≈ 0.0376 µM) | 1 (≈ 1.21 µM) | 4 (≈ 4.82 µM) | 2 (≈ 2.41 µM) | 1 (≈ 1.21 µM) | > 32 | 2 (≈ 2.41 µM) | 2 (≈ 2.41 µM) | 4 (≈ 4.82 µM) | 0.5 to 2 (≈ 0.603 to 2.41 µM) | 0.25 (≈ 0.302 µM) | > 32 | 0.5 (≈ 0.603 µM) | 2 (≈ 2.41 µM) | 8 (≈ 9.65 µM) | MIC ([13]; Spn160 S. pneumoniae ermB unknown mefA positive, read-out: MIC): 0.125 to 0.25 µg/mL (≈ 0.151 to 0.302 µM); MIC [18]: > 32 µg/mL; MIC [19]: 8 µg/mL (≈ 9.65 µM); MIC [20]: 16 µg/mL (≈ 19.3 µM); MIC [21]: 1 to 2 µg/mL (≈ 1.21 to 2.41 µM); MIC [22, 35]: 0.25 µg/mL (≈ 0.302 µM); MIC [22, 36]: 2 µg/mL (≈ 2.41 µM); MIC [22, 37]: > 32 µg/mL; MIC [22, 38]: > 32 µg/mL; MIC ([22]; S. pneumoniae 49619, read-out: MIC S. pneumoniae (49619)): 0.125 µg/mL (≈ 0.151 µM); MIC ([23]; ATCC49619): 0.0156 to 0.0312 µg/mL (≈ 0.0188 to 0.0376 µM); MIC [24]: 2 µg/mL (≈ 2.41 µM); MIC [25]: 0.5 µg/mL (≈ 0.603 µM); MIC [26]: > 32 µg/mL |
| CC[C@H]1OC(=O)[C@H](C)C(=O)[C@H](C)[C@@H](O[C@@H]2OC(C)CC(N(C)C)C2O)[C@](C)(OC)C[C@@H](C)CN[C@H](C)[C@H]2N(CCCCn3cc(-c4cccc(N)c4)nn3)C(=O)O[C@]12C (stereo partly drawn) [FSM-20707] | 0.5 (≈ 0.604 µM) | 1 (≈ 1.21 µM) | 1 to 2 (≈ 1.21 to 2.42 µM) | 32 (≈ 38.6 µM) | 2 (≈ 2.42 µM) | 0.0625 (≈ 0.0755 µM) | 0.5 to 1 (≈ 0.604 to 1.21 µM) | 8 (≈ 9.66 µM) | 0.5 to 2 (≈ 0.604 to 2.42 µM) | 1 (≈ 1.21 µM) | > 32 | 1 (≈ 1.21 µM) | 4 (≈ 4.83 µM) | 4 (≈ 4.83 µM) | 0.25 to 2 (≈ 0.302 to 2.42 µM) | 0.25 (≈ 0.302 µM) | > 32 | 0.5 (≈ 0.604 µM) | 2 (≈ 2.42 µM) | 4 (≈ 4.83 µM) | MIC [27]: 0.5 µg/mL (≈ 0.604 µM); MIC [28]: 4 µg/mL (≈ 4.83 µM); MIC ([10]; S. aureus 183, read-out: MIC S. aureus (183)): > 32 µg/mL; MIC [13]: 0.0625 to 0.125 µg/mL (≈ 0.0755 to 0.151 µM); MIC [19]: 8 µg/mL (≈ 9.66 µM); MIC [20]: 8 µg/mL (≈ 9.66 µM); MIC [22, 35]: 0.125 µg/mL (≈ 0.151 µM); MIC [22, 36]: 1 µg/mL (≈ 1.21 µM); MIC [22, 37]: > 32 µg/mL; MIC [22, 38]: > 32 µg/mL; MIC ([22]; read-out: MIC S. pneumoniae (49619)): ≤ 0.0625 µg/mL; MIC ([23]; Spn 106 S. pneumonia ATCC49619, read-out: MIC): 0.0156 to 0.0312 µg/mL (≈ 0.0188 to 0.0377 µM); MIC [24]: 1 to 2 µg/mL (≈ 1.21 to 2.42 µM); MIC [25]: 0.5 µg/mL (≈ 0.604 µM); MIC [26]: > 32 µg/mL |
